Data taken from patent publication US20080108582A1, “Methods And Compositions For Combinatorial Approaches To Cancer Gene Therapy” (priority 2003, published 2008).
Entries after “also recorded” stand apart in the source; their conditions may differ.

Tests used:
mouse model = conditions: 100 mg/kg, intra-peritoneal; cited from earlier work
[1] = system: p53-RE (p53C#18) in wild type mouse embryonic fibroblasts; assay: p53 response element luciferase assay with cisplatin; format: cell-based; conditions: wild type MEF; increasing concentrations at the time of transfection
Protocol: FIG. 12. Treatment with cisplatin enhances activity of p53-RE in cells with wild type p53. Wild type and p53−/− mouse embryonic fibroblasts (MEF) were transfected with p53C#18 as described above. Increasing concentrations of cisplatin were added at the time of transfection. Luciferase assay was performed 36-48 hours later and transfection efficiency was normalized.
To determine whether treatment with cisplatin (which increases steady-state level of p53 protein) can enhance activity of the p53-RE in normal cells, wild type and p53−/− mouse embryonic fibroblasts were treated with increasing concentrations of cisplatin at the time of transfection (FIG. 12).

HCC 1937 cells [2] = assay: MTS cytotoxicity assay; format: cell-based, Human
Protocol: (§1) MTS cytotoxicity assay. Cells were plated 2×10^4 per well in triplicate wells and incubated overnight. Serial dilutions of soluble TRAIL in Hank's balanced salt solution (HBSS) were added to the wells and cells were incubated for an additional 36 hours. Cytotoxicity was assessed using a CellTiter 96 Non-Radioactive Cell Proliferation Assay and medium background was subtracted. Results are presented as percent of HBSS-treated control.

MCF-7 cells [3] = assay: MTS cytotoxicity assay; format: cell-based, Human
Protocol: as §1

HCC 1937 cells [4] = assay: Annexin V determination by flow cytometry; format: cell-based, Human; conditions: 100 ng of TRAIL for 36 hours
Protocol: (§2) Annexin V determination. 1×10^6 cells were plated per 60 mm dish and cultured overnight. Cells were than left untreated or treated with soluble TRAIL (100 ng/ml) and incubated for additional 36 hours. Cells were than trypsinized and washed with 1× Binding Buffer. For each condition, half of the cell suspension was left untreated and another half was incubated for 15 minutes at room temperature in the dark with Annexin V. Immediately after staining, cells were analyzed by flow cytometry.

MCF-7 cells [5] = assay: Annexin V determination by flow cytometry; format: cell-based, Human; conditions: 100 ng of TRAIL for 36 hours
Protocol: as §2

MDA-MB-231 cells = assay: MTS cytotoxicity assay; format: cell-based, Human; conditions: increasing concentrations of recombinant TRAIL, 48 hours
Protocol: (§3) MTS cytotoxicity assay. Cells were plated 2×10^4 per well in triplicate wells and incubated overnight. […] Cytotoxicity was assessed using a CellTiter 96 Non-Radioactive Cell Proliferation Assay and medium background was subtracted. Results are presented as percent of HBSS-treated control.

CAMA-1 cells = assay: MTS cytotoxicity assay; format: cell-based, Human; conditions: increasing concentrations of recombinant TRAIL, 48 hours
Protocol: as §3

CCc1c2c(nc3ccc(OC(=O)N4CCC(N5CCCCC5)CC4)cc13)-c1cc3c(c(=O)n1C2)COC(=O)[C@]3(O)CC [irinotecan]
drug-related toxicity (in words) (mouse model): without drug-related toxicity
survival in a mouse model (in words) (mouse model): prolong survival

N.N.[Cl][Pt][Cl] [Cisplatin, cisplatin]
effect on activity of p53-RE (in words) [1]: enhanced activity of p53C#18 in cells with wild type p53 in a dose-dependent manner

TRAIL: soluble TRAIL, residues 114-281 of the soluble domain of human TRAIL, expressed in E. coli (BIOMOL)
sensitivity to TRAIL-induced apoptosis by MTS (in words) (HCC 1937 cells [2]): completely resistant
sensitivity to TRAIL-induced apoptosis by MTS (in words) (MCF-7 cells [3]): completely resistant
increase in Annexin V staining (HCC 1937 cells [4]): approximately 17%
increase in Annexin V staining (MCF-7 cells [5]): approximately 17%
cell viability by MTS (in words) (MDA-MB-231 cells): significant TRAIL-dependent reduction of viability; also recorded: biphasic effect
cell viability by MTS (in words) (CAMA-1 cells): significant TRAIL-dependent reduction of viability
